According to patent US20210137948A1, “TREATMENT OF INFECTIONS CAUSED BY NEISSERIA GONOCOCCUS USING A HALOGENATED SALICYLANILIDE” (priority 2018, published 2021):
≈ marks a conversion by molar mass, not a printed value. Like-named read-outs stand apart in the source and are kept apart here.

Columns and labels:
rats = settings: p.o., cited from earlier work
[1] = system: Neisseria gonorrhoeae CDC panel consisting of 48 isolates; assay: Agar dilution MIC, CDC panel of 48 isolates (Example 2); assay type: cell-based; settings: for MIC: Neisseria gonorrhoeae
Experimental: Neisseria gonorrhoeae (Neisseria gonocossus) were tested for antimicrobial susceptibility using agar dilution as described by the Clinical and Laboratory Standards Institute (CLSI), see reference (4).
The concentrations tested for each compound encompass the reported interpretive breakpoints and consist of 8 or more doubling dilutions, ensuring that there is one dilution below the lowest value of QC.
GC agar base +1% defined growth supplement.
Initial screening strains: Neisseria gonorrhoeae CDC panel consisting of 48 isolates. The strains were provided by Clinical and Environmental Microbiology Branch, Division of Healthcare Quality Promotion, CDC (Atlanta, US).
Dilution scheme for reference method: Prepare intermediate 100× antimicrobial agent solutions by making successive serial twofold dilutions. Then, add one part of the 100× antimicrobial solution to […] of molten agar. Plates containing no antimicrobial agent solutions are made for use as growth controls. It is important that no longer than one hour elapses between the time that the stock solution is thawed, the dilutions are prepared and added to the base medium and the plates are poured, see reference (5).
• Add appropriate dilutions of antimicrobial solution to molten test agars that have been allowed to equilibrate in a water bath to 50° C. • Mix the agar and antimicrobial solution thoroughly and pour (20 mL) into Petri dishes on a level surface. Pour quickly after mixing to prevent cooling and partial solidification in the mixing container. Avoid generating bubbles when mixing. • Allow the agar to solidify at room temperature and store them in sealed plastic bags at 2 to 8° C. for up to five days. Preferably use with 24 hours. • Allow plates stored at 2 to 8° C. to equilibrate to room temperature before use. Make certain that the agar surface is dry before inoculating the plates. If necessary, place the plates in an incubator or laminar flow hood for approximately 30 minutes with their lids ajar to hasten drying of the agar surface.
Inoculum preparation: Prepare a standardized inoculum for the agar dilution method by suspending isolated colonies of Neisseria gonorrhoeae selected from an 18-24 hour-old chocolate agar plate directly in Mueller Hinton Broth (MHB) to achieve the density equivalent to a 0.5 McFarland standard and adjusted to obtain a cell density of ˜1-2×10^8 CFU/mL. For N. gonorrhoeae, the McFarland solutions are made at a reading of ˜0.80 in densitometer (Grant Instruments DEN-1B Densitometer) because these values have been evaluated and correspond to the desired CFU/mL count.
Dilution of inoculum suspension: Cultures adjusted to the 0.5 McFarland standard contain approximately 1 to 2×10^8 CFU/mL with most species, and the final inoculum required is 10^4 CFU per spot. When using replicators with 3-mm pins that deliver ˜2.5 μL, dilute the 0.5 McFarland suspension 1:10 in sterile MHB to obtain a concentration of 10^7 CFU/mL. The final inoculum on the agar will be approximately 10^4 CFU per spot. Use the adjusted suspensions for final inoculation within 60 minutes of preparation, see reference (5).
The following procedure was followed: • Arrange the tubes containing the adjusted and diluted bacterial suspensions (10^7 CFU/mL) in order in a rack. Place an aliquot of each well-mixed suspension into the corresponding well in the replicator inoculum block (if being used). • Mark the agar plates for orientation of the inoculum spots. • Apply an aliquot of each inoculum (2.5 μL) to the agar surface, either with an inocula-replicating device or pipette, to obtain a final concentration of ˜10^4 CFU/spot. • Inoculate a growth-control plate (no antimicrobial agent) first and then, starting with the lowest concentration, inoculate the plates containing the different antimicrobial concentrations. […]

rabbits = settings: p.o.; cited from earlier work
mice = settings: p.o., cited from earlier work

In the case of `O=C(Nc1ccc(Oc2ccc(Cl)cc2)c(Cl)c1)c1cc(I)cc(I)c1O` [Rafoxanide, rafoxanide], the “LD50, median” value (rats; median of the studies) is given as > 1490 mg/kg, the LD50 (rats) is given as 980->2000 mg/kg and the MIC ([1]; read-out: MIC value, for 46 of the 48 isolates of N. gonorrhoeae) is given as ≤ 50.2 µg/mL. The MIC ([1]; read-out: Minimal inhibitory concentration, Neisseria gonorrhoeae strain CDC # 165) was ≤ 0.25 µg/mL, the MIC ([1]; read-out: Minimal inhibitory concentration, Neisseria gonorrhoeae strain CDC # 166) was ≤ 0.25 µg/mL and the MIC ([1]; read-out: Minimal inhibitory concentration, Neisseria gonorrhoeae strain CDC # 167) was ≤ 0.25 µg/mL. The MIC ([1]; read-out: Minimal inhibitory concentration, Neisseria gonorrhoeae strain CDC # 169) was ≤ 0.25 µg/mL, the MIC ([1]; read-out: Minimal inhibitory concentration, Neisseria gonorrhoeae strain CDC # 170) was ≤ 0.25 µg/mL and the MIC ([1]; read-out: Minimal inhibitory concentration, Neisseria gonorrhoeae strain CDC # 171) was ≤ 0.25 µg/mL. The MIC ([1]; read-out: Minimal inhibitory concentration, Neisseria gonorrhoeae strain CDC # 172) was ≤ 0.25 µg/mL, the MIC ([1]; read-out: Minimal inhibitory concentration, Neisseria gonorrhoeae strain CDC # 173) was ≤ 0.25 µg/mL and the MIC ([1]; read-out: Minimal inhibitory concentration, Neisseria gonorrhoeae strain CDC # 174) was ≤ 0.25 µg/mL. For the same molecule, the MIC ([1]; read-out: Minimal inhibitory concentration, Neisseria gonorrhoeae strain CDC # 175) was ≤ 0.25 µg/mL, the MIC ([1]; read-out: Minimal inhibitory concentration, Neisseria gonorrhoeae strain CDC # 176) was ≤ 0.25 µg/mL and the MIC ([1]; read-out: Minimal inhibitory concentration, Neisseria gonorrhoeae strain CDC # 177) was ≤ 0.25 µg/mL. For the same molecule, the MIC ([1]; read-out: Minimal inhibitory concentration, Neisseria gonorrhoeae strain CDC # 178) was ≤ 0.25 µg/mL, the MIC ([1]; read-out: Minimal inhibitory concentration, Neisseria gonorrhoeae strain CDC # 179) was ≤ 0.25 µg/mL and the MIC ([1]; read-out: Minimal inhibitory concentration, Neisseria gonorrhoeae strain CDC # 180) was ≤ 0.25 µg/mL. The MIC ([1]; read-out: Minimal inhibitory concentration, Neisseria gonorrhoeae strain CDC # 181) was ≤ 0.25 µg/mL, the MIC ([1]; read-out: Minimal inhibitory concentration, Neisseria gonorrhoeae strain CDC # 182) was 2 µg/mL (≈ 3.19 µM) and the MIC ([1]; read-out: Minimal inhibitory concentration, Neisseria gonorrhoeae strain CDC # 183) was ≤ 0.25 µg/mL. For the same molecule, the MIC ([1]; read-out: Minimal inhibitory concentration, Neisseria gonorrhoeae strain CDC # 184) was ≤ 0.25 µg/mL, the MIC ([1]; read-out: Minimal inhibitory concentration, Neisseria gonorrhoeae strain CDC # 185) was ≤ 0.25 µg/mL and the MIC ([1]; read-out: Minimal inhibitory concentration, Neisseria gonorrhoeae strain CDC # 186) was ≤ 0.25 µg/mL. The MIC ([1]; read-out: Minimal inhibitory concentration, Neisseria gonorrhoeae strain CDC # 187) was ≤ 0.25 µg/mL, the MIC ([1]; read-out: Minimal inhibitory concentration, Neisseria gonorrhoeae strain CDC # 188) was ≤ 0.25 µg/mL and the MIC ([1]; read-out: Minimal inhibitory concentration, Neisseria gonorrhoeae strain CDC # 189) was ≤ 0.25 µg/mL. For the same molecule, the MIC ([1]; read-out: Minimal inhibitory concentration, Neisseria gonorrhoeae strain CDC # 190) was ≤ 0.25 µg/mL, the MIC ([1]; read-out: Minimal inhibitory concentration, Neisseria gonorrhoeae strain CDC # 191) was ≤ 0.25 µg/mL and the MIC ([1]; read-out: Minimal inhibitory concentration, Neisseria gonorrhoeae strain CDC # 192) was ≤ 0.25 µg/mL. For the same molecule, the MIC ([1]; read-out: Minimal inhibitory concentration, Neisseria gonorrhoeae strain CDC # 193) was ≤ 0.25 µg/mL, the MIC ([1]; read-out: Minimal inhibitory concentration, Neisseria gonorrhoeae strain CDC # 194) was ≤ 0.25 µg/mL and the MIC ([1]; read-out: Minimal inhibitory concentration, Neisseria gonorrhoeae strain CDC # 195) was ≤ 0.25 µg/mL. For the same molecule, the MIC ([1]; read-out: Minimal inhibitory concentration, Neisseria gonorrhoeae strain CDC # 196) was ≤ 0.25 µg/mL, the MIC ([1]; read-out: Minimal inhibitory concentration, Neisseria gonorrhoeae strain CDC # 198) was ≤ 0.25 µg/mL and the MIC ([1]; read-out: Minimal inhibitory concentration, Neisseria gonorrhoeae strain CDC # 199) was ≤ 0.25 µg/mL. The MIC ([1]; read-out: Minimal inhibitory concentration, Neisseria gonorrhoeae strain CDC # 200) was ≤ 0.25 µg/mL, the MIC ([1]; read-out: Minimal inhibitory concentration, Neisseria gonorrhoeae strain CDC # 201) was ≤ 0.25 µg/mL and the MIC ([1]; read-out: Minimal inhibitory concentration, Neisseria gonorrhoeae strain CDC # 202) was ≤ 0.25 µg/mL. For the same molecule, the MIC ([1]; read-out: Minimal inhibitory concentration, Neisseria gonorrhoeae strain CDC # 203) was ≤ 0.25 µg/mL, the MIC ([1]; read-out: Minimal inhibitory concentration, Neisseria gonorrhoeae strain CDC # 204) was 0.5 µg/mL (≈ 0.799 µM) and the MIC ([1]; read-out: Minimal inhibitory concentration, Neisseria gonorrhoeae strain CDC # 205) was ≤ 0.25 µg/mL. The MIC ([1]; read-out: Minimal inhibitory concentration, Neisseria gonorrhoeae strain CDC # 206) was ≤ 0.25 µg/mL, the MIC ([1]; read-out: Minimal inhibitory concentration, Neisseria gonorrhoeae strain CDC # 207) was ≤ 0.25 µg/mL and the MIC ([1]; read-out: Minimal inhibitory concentration, Neisseria gonorrhoeae strain CDC # 208) was ≤ 0.25 µg/mL. The MIC ([1]; read-out: Minimal inhibitory concentration, Neisseria gonorrhoeae strain CDC # 209) was ≤ 0.25 µg/mL, the MIC ([1]; read-out: Minimal inhibitory concentration, Neisseria gonorrhoeae strain CDC # 210) was ≤ 0.25 µg/mL and the MIC ([1]; read-out: Minimal inhibitory concentration, Neisseria gonorrhoeae strain CDC # 211) was ≤ 0.25 µg/mL. For the same molecule, the MIC ([1]; read-out: Minimal inhibitory concentration, Neisseria gonorrhoeae strain CDC # 212) was ≤ 0.25 µg/mL, the MIC ([1]; read-out: Minimal inhibitory concentration, Neisseria gonorrhoeae strain CDC # 213) was ≤ 0.25 µg/mL and the MIC ([1]; read-out: Minimal inhibitory concentration, Neisseria gonorrhoeae strain CDC # 214) was ≤ 0.25 µg/mL. The “in vitro activity (in words)” value ([1]; against N. gonococcus (N. gonorrhoeae), Example 2 conclusion) was “Good in vitro activity”, the LD50 (rabbits) was 3200 mg/kg and the “LD50, median” value (mice; median of the studies) was 266 mg/kg. For the same molecule, the LD50 (mice) was 232 to 300 mg/kg.
